Data taken from EP0040150A1, “Fluoromethylated tyrosine methyl ester” (MERRELL TORAUDE ET COMPAGNIE, priority 1980, dated 1981).

How the values were obtained:
catecholamines = assay: Catecholamine levels in rat brain and heart after dosing (HPLC with electrochemical detection); type: in vivo, rats; conditions: for selectivity (brain catecholamines versus heart catecholamines and 5-HT): compared with the methyl ester
Procedure: The animals are kept on a constant 12 hour day-night cycle, and body weights are measured daily. The animals are sacrificed by decapitation 12 to 24 hours after receiving the last dose of the test compound. Control animals receive the vehicle alone. Rats in single dose tests were fasted for 24 hours before administration of the test compound whilst rats in multiple dose tests were allowed free access to food and water. Immediately after death, the brain and heart (where appropriate) are removed and separately homogenized either by 50 ml phosphate buffer pH 6.8 for AADC determination or in icecold 0.4 M HC104 containing 0.05% (w/v) EDTA and 0.1% (w/v) sodium bisulfite for catecholamine determination. AADC activity is determined by the ^14C02 trapping method of J. Christenson, Archs. Biochem. Biophys. […] Catecholamines are determined by centrifuging the homogenate, adding the supernatant to alumina buffered to pH 8.0-8.4 to absorb the catecholamines, re-extracting the catecholamines from the alumina with 2.1 M HC104 and determining the catecholamines in the extracts using reversed-phase ion-pair HPLC with electrochemical detection.

[1] = biological target: T1, aromatic amino acid decarboxylase (AADC) (Rattus norvegicus, UniProt P14173); assay: AADC activity in rat organ homogenates after dosing (14CO2 trapping method, DL-[1-14C]-dopa as substrate); type: in vivo, rats
T1 construct: the brain and heart (where appropriate) are removed and separately homogenized; from tissue; host or cells: rat brain and heart homogenates
T1 sequence (P14173 1-480): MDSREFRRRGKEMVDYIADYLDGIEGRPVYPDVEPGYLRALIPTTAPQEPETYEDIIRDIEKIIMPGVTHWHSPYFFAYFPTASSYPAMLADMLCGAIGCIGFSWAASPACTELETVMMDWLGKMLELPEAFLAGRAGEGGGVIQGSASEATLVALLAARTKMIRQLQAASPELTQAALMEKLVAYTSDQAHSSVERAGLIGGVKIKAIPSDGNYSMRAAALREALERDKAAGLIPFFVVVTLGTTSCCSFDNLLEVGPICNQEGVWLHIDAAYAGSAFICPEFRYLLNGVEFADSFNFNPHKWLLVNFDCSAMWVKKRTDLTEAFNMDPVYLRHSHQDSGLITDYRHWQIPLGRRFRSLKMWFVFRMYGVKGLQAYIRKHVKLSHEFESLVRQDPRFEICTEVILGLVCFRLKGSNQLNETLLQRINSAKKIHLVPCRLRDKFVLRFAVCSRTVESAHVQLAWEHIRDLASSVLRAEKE
Procedure: (§1) The animals are kept on a constant 12 hour day-night cycle, and body weights are measured daily. The animals are sacrificed by decapitation 12 to 24 hours after receiving the last dose of the test compound. Control animals receive the vehicle alone. Rats in single dose tests were fasted for 24 hours before administration of the test compound whilst rats in multiple dose tests were allowed free access to food and water.
Immediately after death, the brain and heart (where appropriate) are removed and separately homogenized either by 50 ml phosphate buffer pH 6.8 for AADC determination or in icecold 0.4 M HC104 containing 0.05% (w/v) EDTA and 0.1% (w/v) sodium bisulfite for catecholamine determination. AADC activity is determined by the ^14C02 trapping method of J. Christenson, Archs. Biochem. Biophys. 141, 356 (1970) using DL-[1-14C] -dopa as the substrate. Catecholamines are determined by centrifuging the homogenate, adding the supernatant to alumina buffered to pH 8.0-8.4 to absorb the catecholamines, re-extracting the catecholamines from the alumina with 2.1 M HC104 and determining the catecholamines in the extracts using reversed-phase ion-pair HPLC with electrochemical detection.

Serotonin (5-HT) = Serotonin (5-HT) levels in rat organs after dosing (standard techniques); type: in vivo, rats
Procedure: as §1
In the brain, doses of 10 mg/kg and 200 mg/kg produced a 10% reduction and a 70-80% reduction of AADC activity, respectively. […] In the heart, no reduction of norepinephrine is noted up to a dose of 200 mg/kg. When tested after multiple administration of 10, 25, or 50 mg/kg given daily for six days in rats sacrificed 24 hours after the sixth dose, the compound produced a 50% decrease in brain norephinephrine at a dose of 10 mg/kg (daily). […] Serotonin (5-HT) levels, as assessed by standard techniques, are not altered in the brain even at the highest dose tested.

[2] = Stability of the compound; type: physicochemical
Solubility in water = type: physicochemical; conditions: neutral pH
AADC = biological target: T2, AADC (Homo sapiens, UniProt P20711); assay: AADC inhibition, general statement (method not given)
T2 sequence (P20711 1-480): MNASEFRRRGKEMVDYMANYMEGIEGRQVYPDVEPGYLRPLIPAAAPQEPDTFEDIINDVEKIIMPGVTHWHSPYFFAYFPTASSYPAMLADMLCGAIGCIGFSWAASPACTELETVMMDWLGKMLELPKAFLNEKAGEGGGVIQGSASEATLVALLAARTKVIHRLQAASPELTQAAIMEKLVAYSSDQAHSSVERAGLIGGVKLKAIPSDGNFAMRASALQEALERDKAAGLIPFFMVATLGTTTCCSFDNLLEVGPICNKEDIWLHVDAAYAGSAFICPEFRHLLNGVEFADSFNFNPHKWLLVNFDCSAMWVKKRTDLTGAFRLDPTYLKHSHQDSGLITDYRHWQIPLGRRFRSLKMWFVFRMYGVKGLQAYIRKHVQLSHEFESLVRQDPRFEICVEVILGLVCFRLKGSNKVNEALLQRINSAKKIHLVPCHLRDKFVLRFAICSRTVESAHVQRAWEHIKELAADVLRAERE

[3] = heart, up to a dose of 200 mg/kg

Q: With `NC(CF)(Cc1ccc(O)c(O)c1)C(=O)O` (centres unmarked) [Fluoromethyl dopa, reference compound] as the compound, how does the “selectivity (brain catecholamines versus heart catecholamines and 5-HT)” value (catecholamines) read?
A: does not exhibit the selectivity

Q: Which results are given for `COC(=O)[C@@H]1[C@H]2C[C@H]3c4[nH]c5ccccc5c4CCN3C[C@@H]2CC[C@@H]1O` [Yohimbine, reference compound]?
A: metabolite MOPEG-sulfate (catecholamines; yohimbine alone): increase; norepinephrine (catecholamines; yohimbine alone): decrease

Q: What does the source list for `COC(=O)C(N)(CF)Cc1ccc(O)cc1` (centres unmarked) [methyl 2-amino-2-fluoromethyl-3-(4-hydroxyphenyl)propionate]?
A: inhibition of AADC activity ([1]; animals pretreated with haloperidol, compared with non-haloperidol treated animals): more pronounced; extent of inhibition of AADC activity in the brain ([1]; brain, co-administration of -methyl tyrosine (inhibitor of tyrosine hydroxylase)): reduces the extent of inhibition; AADC activity in the heart [1, 3]: not reduced significantly; inhibition at 10 mg/kg ([1]; rat, brain, dose 10 mg/kg, read-out: reduction of AADC activity): 10%; additional decrease of norepinephrine produced by yohimbine (catecholamines; animals treated for 2 weeks with 10 mg/kg methyl ester, same dose of yohimbine): no longer produces an additional decrease; decrease in brain norephinephrine (catecholamines; brain, 10 mg/kg daily for six days, sacrificed 24 hours after the sixth dose): 50%; Brain dopamine decreased (catecholamines; brain, 50 mg/kg daily for six days): 50%; Brain norepinephrine decreased (catecholamines; brain, dose 10 mg/kg): 15-20%; dopamine decreased (catecholamines; brain, dose 50 mg/kg): decreased significantly; Brain norepinephrine decreased (catecholamines; brain, dose 200 mg/kg): 50%; dopamine decreased (catecholamines; brain, dose 200 mg/kg): 75%; decrease in brain norephinephrine (catecholamines; brain, higher doses (25 or 50 mg/kg daily for six days) compared with 10 mg/kg): do not give an additional response; Brain dopamine (catecholamines; brain, lower doses (10, 25 mg/kg daily for six days)): no significant effect; endogenous catecholamine levels in the brain (catecholamines; brain, summary statement): effective in lowering; decrease of norepinephrine over yohimbine (catecholamines; combined with yohimbine, up to 8 days of methyl ester treatment): small additional decrease; Heart norepinephrine (catecholamines; heart, multiple administration (10, 25 or 50 mg/kg daily for six days), any dose): not significantly changed; reduction of norepinephrine in the heart (catecholamines; [3]): no reduction; endogenous 5-HT levels in the brain and heart (Serotonin (5-HT); brain and heart, summary statement): substantially unaltered; Serotonin (5-HT) levels in the brain (Serotonin (5-HT); brain, multiple administration, even at the highest dose tested): not altered

Q: For `CC(C)(C)OC(=O)C(N)(CF)Cc1ccc(O)cc1` (centres unmarked) [tert-butyl 2-fluoromethyl-2-amino-3-(4-hydroxyphenyl)-propionate], which stability [2] is on record?
A: relatively unstable

Q: Which “selectivity (brain catecholamines versus heart catecholamines and 5-HT)” value (catecholamines) does the source give for `NC(CF)(Cc1ccc(O)cc1)C(=O)O` (stereo not drawn) [α-fluoromethyl tyrosine, 2-fluoromethyl-2-amino-3-(4-hydroxyphenyl)-propionic acid] here?
A: same degree of selectivity is not found

Q: And the solubility in water (Solubility in water)?
A: insoluble

Q: What about the AADC inhibition (AADC) of the same compound?
A: weak AADC inhibitor
